According to patent US10131652B2, “Pyrimidinyloxy benzene derivatives as herbicides” (E. I. DU PONT DE NEMOURS AND COMPANY, priority 2014, dated 2018):

How the values were obtained:
Assay type in all cases: in vivo
[1] = system: small-flower umbrella sedge (Cyperus difformis); test: Test C flooded paddy test plant response; conditions: Flood, 250 g ai/ha; scale of 0 to 100 where 0 is no effect and 100 is complete control; 13 to 15 days
Procedure, shortened: (§1)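 Scored visually on a 0–100 scale (100 = complete control) against untreated plants 13 to 15 days after treatment in the greenhouse. Compounds went into paddy water of pots flooded to 3 cm, holding 2-leaf-stage plants.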

[2] = system: barnyardgrass (Echinochloa crus-galli); test: Test C flooded paddy test plant response; conditions: Flood, 250 g ai/ha; scale of 0 to 100 where 0 is no effect and 100 is complete control; 13 to 15 days
Procedure, shortened: as §1

rice (Oryza sativa) = test: Test C flooded paddy test plant response; conditions: Flood, 250 g ai/ha; scale of 0 to 100 where 0 is no effect and 100 is complete control; 13 to 15 days
Procedure, shortened: as §1

[3] = system: ducksalad (Heteranthera limosa); test: Test C flooded paddy test plant response; conditions: Flood, 250 g ai/ha; scale of 0 to 100 where 0 is no effect and 100 is complete control; 13 to 15 days
Procedure, shortened: as §1

[4] = system: waterhemp (common waterhemp, Amaranthus rudis); test: Test D pre-/postemergence plant response; conditions: Postemergence; for Waterhemp plant response rating: scale 0 to 100 (0 no effect, 100 complete control); for Plant response rating, Waterhemp: scale 0 to 100, 0 no effect, 100 complete control
Source text: (§2) Seeds of plant species selected from blackgrass (Alopecurus myosuroides), Italian ryegrass (Lolium multiflorum), winter wheat (Triticum aestivum), galium (catchweed bedstraw, Galium aparine), corn (Zea mays), large (Lg) crabgrass (Digitaria sanguinalis), giant foxtail (Setaria faberii), johnsongrass (Sorghum halepense), lambsquarters (Chenopodium album), morningglory (Ipomoea coccinea), yellow nutsedge (Cyperus esculentus), pigweed (Amaranthus retroflexus), ragweed (common ragweed, Ambrosia elatior), soybean (Glycine max), bamyardgrass (Echinochloa crus-galli), oilseed rape (Brassica napus), waterhemp (common waterhemp, Amaranthus rudis), and velvetleaf (Abutilon theophrasti) were planted into a blend of loam soil and sand and treated preemergence with test chemicals formulated in a non-phytotoxic solvent mixture which included a surfactant. At the same time, plants selected from these crop and weed species and also kochia (Kochia scoparia), wild oat (Avena fatua), and chickweed (common chickweed, Stellaria media) were planted in pots containing Redi-Earth® planting medium (Scotts Company, 14111 Scottslawn Road, Marysville, Ohio 43041) comprising spaghnum peat moss, vermiculite, wetting agent and starter nutrients and treated with postemergence applications of test chemicals formulated in the same manner. Plants ranged in height from 2 to 18 cm (1- to 4-leaf stage) for postemergence treatments. Treated plants and controls were maintained in a greenhouse for 13 to 15 days, after which time all species were compared to controls and visually evaluated. Plant response ratings, summarized in Table D, are based on a scale of 0 to 100 where 0 is no effect and 100 is complete control. A dash (-) response means no test result.

[5] = system: morningglory (Ipomoea coccinea); test: Test D pre-/postemergence plant response; conditions: Postemergence; for Morningglory plant response rating: scale 0 to 100 (0 no effect, 100 complete control); for Plant response rating, Morningglory: scale 0 to 100, 0 no effect, 100 complete control
Source text: as §2

[6] = system: winter wheat (Triticum aestivum); test: Test D pre-/postemergence plant response; conditions: Postemergence; for Wheat plant response rating: scale 0 to 100 (0 no effect, 100 complete control); for Plant response rating, Wheat: scale 0 to 100, 0 no effect, 100 complete control
Source text: as §2

[7] = system: johnsongrass (Sorghum halepense); test: Test D pre-/postemergence plant response; conditions: Postemergence; for Johnsongrass plant response rating: scale 0 to 100 (0 no effect, 100 complete control); for Plant response rating, Johnsongrass: scale 0 to 100, 0 no effect, 100 complete control
Source text: as §2

[8] = system: lambsquarters (Chenopodium album); test: Test D pre-/postemergence plant response; conditions: Postemergence; for Lambsquarters plant response rating: scale 0 to 100 (0 no effect, 100 complete control); for Plant response rating, Lambsquarters: scale 0 to 100, 0 no effect, 100 complete control
Source text: as §2

soybean (Glycine max) = test: Test D pre-/postemergence plant response; conditions: Postemergence; for Soybean plant response rating: scale 0 to 100 (0 no effect, 100 complete control); for Plant response rating, Soybean: scale 0 to 100, 0 no effect, 100 complete control
Source text: as §2

[9] = system: velvetleaf (Abutilon theophrasti); test: Test D pre-/postemergence plant response; conditions: Postemergence; for Velvetleaf plant response rating: scale 0 to 100 (0 no effect, 100 complete control); for Plant response rating, Velvetleaf: scale 0 to 100, 0 no effect, 100 complete control
Source text: as §2

[10] = system: giant foxtail (Setaria faberii); test: Test B pre-/postemergence plant response
Procedure, shortened: (§3)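 Steps: plant seeds in loam soil–sand mix; spray soil preemergence, and in parallel spray 2–10 cm one- to two-leaf plants postemergence; hold ~10 days in greenhouse; visually rate injury against untreated controls (0 = no effect, 100 = complete control).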

corn (Zea mays) = test: Test B pre-/postemergence plant response
Procedure, shortened: as §3

[11] = system: pigweed (Amaranthus retroflexus); test: Test B pre-/postemergence plant response
Procedure, shortened: as §3

[12] = system: barnyardgrass (Echinochloa crus-galli); test: Test B pre-/postemergence plant response
Procedure, shortened: as §3

[13] = system: wheat (Triticum aestivum); test: Test B pre-/postemergence plant response
Procedure, shortened: as §3

[14] = 125 g ai/ha, postemergence, 0 to 100 scale, 0 no effect, 100 complete control
[15] = Postemergence, 500 g ai/ha, 0 to 100 scale (0 no effect, 100 complete control)
[16] = Preemergence, 125 g ai/ha, 0 to 100 scale where 0 is no effect and 100 is complete control
[17] = Preemergence, 500 g ai/ha, 0 to 100 scale where 0 is no effect and 100 is complete control

Cn1nnc(-c2ccccc2Oc2ncc(Br)cn2)n1 [Compound 50]
20: Plant response rating, Morningglory ([5]; 125 g ai/ha) | Plant response rating, Soybean (soybean (Glycine max); 62 g ai/ha) | Plant response rating, Wheat [13, 15]
100: Plant response rating, Pigweed [11, 15] | Plant response rating, Pigweed [11, 17]
0: Sedge, Umbrella plant response rating [1] | Barnyardgrass plant response rating [2] | Rice plant response rating (rice (Oryza sativa)) | Waterhemp plant response rating ([4]; 16 g ai/ha) | Waterhemp plant response rating ([4]; 31 g ai/ha) | Plant response rating, Waterhemp ([4]; 62 g ai/ha) | Morningglory plant response rating ([5]; 16 g ai/ha) | Morningglory plant response rating ([5]; 31 g ai/ha) | Wheat plant response rating ([6]; 16 g ai/ha) | Wheat plant response rating ([6]; 31 g ai/ha) | Johnsongrass plant response rating ([7]; 16 g ai/ha) | Johnsongrass plant response rating ([7]; 31 g ai/ha) | Plant response rating, Johnsongrass ([7]; 62 g ai/ha) | Plant response rating, Johnsongrass ([7]; 125 g ai/ha) | Lambsquarters plant response rating ([8]; 16 g ai/ha) | Velvetleaf plant response rating ([9]; 16 g ai/ha) | Velvetleaf plant response rating ([9]; 31 g ai/ha) | Plant response rating, Velvetleaf ([9]; 62 g ai/ha) | Plant response rating, Foxtail, Giant [10, 14] | Plant response rating, Foxtail, Giant [10, 16] | Plant response rating, Corn (corn (Zea mays); [14]) | Plant response rating, Corn (corn (Zea mays); [15]) | Plant response rating, Barnyardgrass [12, 14] | Plant response rating, Barnyardgrass [12, 15] | Plant response rating, Barnyardgrass [12, 16] | Plant response rating, Wheat [13, 14]
50: Plant response rating, Lambsquarters ([8]; 62 g ai/ha) | Plant response rating, Foxtail, Giant [10, 17]
10: Plant response rating, Morningglory ([5]; 62 g ai/ha) | Plant response rating, Foxtail, Giant [10, 15] | Plant response rating, Barnyardgrass [12, 17]
30: Ducksalad plant response rating [3]
60: Plant response rating, Pigweed [11, 16]
70: Plant response rating, Pigweed [11, 14]
40: Plant response rating, Waterhemp ([4]; 125 g ai/ha) | Plant response rating, Soybean (soybean (Glycine max); 125 g ai/ha) | Plant response rating, Velvetleaf ([9]; 125 g ai/ha)
5: Plant response rating, Wheat ([6]; 62 g ai/ha) | Plant response rating, Wheat ([6]; 125 g ai/ha) | Lambsquarters plant response rating ([8]; 31 g ai/ha) | Plant response rating, Lambsquarters ([8]; 125 g ai/ha) | Soybean plant response rating (soybean (Glycine max); 16 g ai/ha) | Soybean plant response rating (soybean (Glycine max); 31 g ai/ha)
